PubChem BioAssay AID720513 (Broad Institute, 2013)
Inconclusive results are not listed.

system: U2OS PGC1a acetylation AlphaLISA, overnight; test: PGC1a acetylation increase, cellular AlphaLISA – cell-based, cherry-picked samples, set 6, dose response (AID 720513);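 note: cells made to overexpress flag tagged PGC1a plus GCN5 acetyltransferase by viral infection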

In order of rising AC40:
1. c1ccc(N2CCN(c3ccccc3)C2c2ccncc2)cc1  0.244 µM
2. C[C@@H]1CN([C@@H](C)CO)C(=O)Cc2cc(NC(=O)Cc3ccccc3)ccc2O[C@H]1CN(C)C(=O)Nc1ccccc1  0.263 µM
3. CCCCC(=O)Nc1ccc(C(=O)NCCCn2ccnc2)cc1  0.269 µM
4. O=C(Nc1ccc(-c2noc(CCc3ccccc3)n2)cc1)c1cccnc1  0.346 µM
5. CCOC(=O)CCc1c(C)c2ccc(O)cc2oc1=O  0.371 µM
6. COc1ccc(C)cc1NS(=O)(=O)c1ccc(NC(=O)CN(c2cc([N+](=O)[O-])ccc2C)S(C)(=O)=O)cc1  0.426 µM
7. CCOC(=O)C1CCCN(S(=O)(=O)c2ccc3c(c2)NC(=O)CO3)C1 (stereo not given)  0.439 µM
8. CCOC(=O)c1c(C)n(C)c2ccc(OCC(O)Cn3nc(C)c(Br)c3C)cc12 (stereo not given)  0.556 µM
9. CCN(CC)CCCn1c(=S)[nH]c2cc(Cl)ccc2c1=O  0.631 µM
10. O=C(CC1SC(=NCc2ccccc2)NC1=O)Nc1ccccc1 (stereo not given)  0.632 µM
11. COc1ccc(-c2nc(N)c(C#N)c(-c3cccnc3)c2C)cc1  0.69 µM
12. COc1ccc(C(c2ccc(OC)cc2)C(Cl)(Cl)Cl)cc1  0.729 µM
13. Cc1ccc(-c2nnc(N3CCN(C(=O)COc4ccccc4)CC3)c3ccccc23)cc1  0.734 µM
14. CC(C)C(c1nnnn1Cc1ccccc1)N(Cc1ccco1)Cc1cccs1 (stereo not given)  0.907 µM
15. CC1=CC(C)(C)N2C(=O)C3(SCC(=O)N3c3ccc(F)cc3)c3cc(C)cc1c32 (stereo not given)  0.966 µM
16. CN1Cc2c(N3CCOCC3)nc3sc(C(=O)c4ccc(Br)cc4)c(N)c3c2CC1(C)C  0.996 µM
17. Nc1c(C(=O)Nc2ccccc2)sc2ncc([N+](=O)[O-])cc12  1.06 µM
18. Cc1cccc(C)c1OC1(c2ccccc2)OC(=O)c2ccccc21 (stereo not given)  1.1 µM
19. N#Cc1cccc(C(c2nnnn2C2CCCC2)N2CCCCCC2)c1 (stereo not given)  1.24 µM
20. O=C(NCCC1=CCCCC1)c1coc(=O)c(Br)c1  1.37 µM
21. O=C(Cc1ccccc1)Nc1nc(-c2ccc(F)c(F)c2)cs1  1.44 µM
22. Cc1cccc(CS(=O)(=O)c2ncc(Cl)c(C(=O)Nc3ccc(F)cc3)n2)c1  1.56 µM
23. Cc1ccc(S(=O)(=O)NC(CC(C)C)C(=O)N2CCCCCCC2)cc1 (stereo not given)  1.59 µM
24. CCC(=O)Nc1ccc(C(=O)Cn2ncc(Cl)c(Cl)c2=O)cc1  1.63 µM
25. CCOC(=O)c1nc(S(C)(=O)=O)ncc1Cl  1.65 µM
26. O=C(CN1CCC(n2nnc3cc(F)ccc32)CC1)NCc1ccco1  1.69 µM
27. CCn1c(SCC(=O)Nc2ccc(NC(=O)c3ccco3)cc2)nnc1-c1cccs1  1.7 µM
28. COc1ccc(CN(CCC(C)C)S(=O)(=O)c2ccccc2Br)cc1  2.04 µM
29. COc1ccccc1/C=C1\SC(=O)N(CCC(=O)NCCCn2ccnc2)C1=O  2.07 µM
30. O=C(Nc1cccnc1)c1ccc(Oc2ccccc2)cc1  2.19 µM
31. COc1ccc(CCNCc2ccc(-c3ccccc3)cc2)cc1OC  2.23 µM
32. O=C(C1CCC1)N1CCN(S(=O)(=O)c2ccccc2)CC1  2.24 µM
33. c1coc(CN(Cc2cccs2)Cc2nnnn2C2CCCCC2)c1  2.52 µM
34. O=C(Nc1ccc(F)cc1)N1CCN(c2nc3ccccc3s2)CC1  2.7 µM
35. O=[N+]([O-])c1cc(-c2nnc(Nc3ccc(O)cc3)c3ccccc23)ccc1N1CCOCC1  2.74 µM
36. COc1ccccc1/C=C1\SC(=S)N(CCC(=O)NCCCn2ccnc2)C1=O  2.88 µM
37. CCN(CC)c1ccc(N)cc1S(=O)(=O)Nc1ccccc1OC  3 µM
38. Cc1nnc(NCc2ccccc2)c2ccccc12  3.04 µM
39. COc1ccc(Nc2nnc(-c3ccc(C(=O)NCCO)cc3)c3ccccc23)cc1  3.07 µM
40. O=C(Nc1ccc(OCC(=O)N2CCC(Cc3ccccc3)CC2)cc1)c1ccco1  3.17 µM
41. CN(C)CC(O)c1ccc(C=Cc2ccc(Cl)cc2)cc1 (stereo not given)  3.19 µM
42. Cc1nc(N2CCN(S(=O)(=O)c3ccc(F)cc3)CC2)c2c(-c3cccs3)csc2n1  3.27 µM
43. CCOC(=O)C1=CC[C@@H](c2ccc(OC)cc2)N(S(=O)(=O)c2ccc(C)cc2)[C@H]1CC  3.36 µM
44. C[C@@H]1CN([C@H](C)CO)C(=O)c2c(c3ccccc3n2C)-c2ccccc2CO[C@@H]1CN(C)C(=O)[C@H](C)c1ccccc1  3.36 µM
45. Cc1ccc(C(=O)N2CCN(c3ccc(NC(=O)c4ccc(Br)o4)cc3)CC2)cc1  3.72 µM
46. O=C(CCCc1nc(-c2ccccc2Cl)no1)NCc1cccnc1  3.78 µM
47. Cc1cccc(C)c1-n1nnnc1C(c1ccccc1OC(F)(F)F)N1CCC(n2c(=O)[nH]c3ccccc32)CC1 (stereo not given)  3.94 µM
48. O=C(NCc1ccccc1)C(c1ccccc1)N(C(=O)c1csnn1)c1ccc(F)cc1 (stereo not given)  4.34 µM
49. CN1C(=O)/C(=C\c2ccc(N3CCCCC3)o2)C(=O)NC1=S  4.61 µM
50. CC(=O)n1cc([C@@H]2C=C(C(=O)Nc3ccccc3)O[C@H](OCc3ccc(CO)cc3)C2)c2ccccc21  4.65 µM
51. C[C@@H]1CN([C@@H](C)CO)C(=O)c2c(c3ccccc3n2C)-c2ccccc2CO[C@@H]1CN(C)C(=O)c1ccc(F)cc1  4.7 µM
52. COc1ccc(CCNC(=O)c2cc(-c3ccco3)on2)cc1OC  5.2 µM
53. CCOc1ccc(N(C)S(=O)(=O)c2cc(-c3cc(C)no3)ccc2OC)cc1  5.29 µM
54. CCN1CCN(c2ncc(C(=O)Nc3cc(Cl)ccc3OC)c3ccccc23)CC1  5.32 µM
55. Cc1ccc(NC(=O)c2c(C(F)(F)F)nn(C)c2SCc2ccc(Cl)cc2)cc1C  5.5 µM
56. CC12CCC(C1)C(C)(C)C2NS(=O)(=O)c1ccc(F)cc1 (stereo not given)  5.98 µM
57. COc1ccc([C@H]2/C=C\CN(S(=O)(=O)/C=C/c3ccccc3)[C@@H](C)C(=O)N2Cc2ccc(F)cc2)cc1  5.99 µM
58. Cc1ccc2c(CN(Cc3ccccc3)Cc3ccccc3)cc(=O)oc2c1  6.06 µM
59. COC(=O)CSc1nc(-c2ccccc2)cc(-c2ccco2)c1C#N  6.11 µM
60. O=C(NCc1csc(-c2cccs2)n1)c1cccc(Cl)c1  6.13 µM
61. O=C(NCc1ccc(Cl)cc1)C1CCC(CNc2c(N3CCCC3)c(=O)c2=O)CC1 (stereo not given)  6.36 µM
62. CCOC(=O)c1c(NC(=O)CSc2cn(CC)c3ccccc23)sc2c1CCC2  6.55 µM
63. CC(=O)c1ccc(N2CCN(c3ccc(S(=O)(=O)NCCN(C)C)cc3[N+](=O)[O-])CC2)cc1  6.58 µM
64. CC(=O)CCS(=O)(=O)c1ccc(C)c(C)c1  6.64 µM
65. C[C@@H]1CN([C@H](C)CO)C(=O)c2c(c3ccccc3n2C)-c2ccccc2CO[C@@H]1CN(C)C(=O)c1ccc(F)cc1  6.65 µM
66. COc1ccc(OC(=O)N(C)C[C@H]2OCc3ccccc3-c3c(n(C)c4ccccc34)C(=O)N([C@@H](C)CO)C[C@H]2C)cc1  6.72 µM
67. Oc1ccc(C[C@@H]2CNCCN2CCC23CC4CC(CC(C4)C2)C3)cc1  6.79 µM
68. COc1ccccc1OCC(=O)Nc1ccc(Cl)cc1C(=O)c1ccccc1  7.29 µM
69. OC[C@H]1O[C@@H](n2cnc3c(NCc4ccco4)ncnc32)[C@H](O)[C@@H]1O  7.4 µM
70. COc1ccc(CCn2c(-c3ccc(OC)cc3)nc3c(c(=O)c4ccccc4n3C)c2=O)cc1  7.43 µM
71. O=C(C(Cc1ccccc1)n1cccc1)N1CCN(c2ccccc2)CC1 (stereo not given)  7.54 µM
72. COC(=O)c1cc2ccsc2n1CC(=O)Nc1cc(Cl)ccc1OC  7.88 µM
73. CCOC(=O)c1c(-c2ccc(C)cc2C)csc1NC(=O)CSc1nnnn1C  8.11 µM
74. COc1ccc(S(=O)(=O)N(Cc2ccccc2)Cc2nc(-c3ccccc3)no2)cc1  8.22 µM
75. COC(=O)C[C@@H]1C[C@H]2c3cc(NC(=O)Nc4ccc(C(F)(F)F)cc4)ccc3O[C@H]2[C@H](CO)O1  8.45 µM
76. COc1ccc(S(=O)(=O)N(C)CC(=O)Nc2cccc(C(C)=O)c2)cc1Cl  9.1 µM
77. O=C(C[C@H]1CC[C@H]2[C@@H](COC[C@@H](O)CN2C(=O)c2cc(Cl)cc(Cl)c2)O1)N1CCc2ccccc2C1  9.14 µM
78. O=S1(=O)CCOC[C@H](CC2CCCCC2)N1Cc1ccc(F)cc1  9.18 µM
79. CN1CCN(c2ccc(CNC(=O)c3ccc(-c4ccnn4C)c4ccoc34)cc2)CC1  9.27 µM
80. COc1ccc(S(=O)(=O)Nc2ccc3c(c2)C(=O)N([C@@H](C)CO)C[C@@H](C)[C@H](CN(C)S(=O)(=O)c2ccc(Cl)cc2)OCCCC[C@H](C)O3)cc1  9.66 µM
81. CC(=O)c1cccc(N(C(=O)Cn2nnc3ccccc32)C(C(=O)NCc2ccccc2)c2ccccn2)c1 (stereo not given)  10.5 µM
82. Cc1c(C(=O)NCCSCc2c(F)cccc2Cl)cnn1-c1ccc(Cl)cc1  10.5 µM
83. COc1ccccc1-c1ccc2c(c1)O[C@@H](CN(C)Cc1ccc3c(c1)OCO3)[C@@H](C)CN([C@@H](C)CO)S2(=O)=O  10.6 µM
84. CN1/C(=C\C(=O)c2cccc(S(=O)(=O)N3CCCCC3)c2)C(C)(C)c2ccccc21  10.9 µM
85. Cc1ccc2c(c1)CC1(CN2C)C(=O)NC(=O)N(C(C)C)C1=O (stereo not given)  12 µM
86. O=C(NCCC(c1ccccc1)c1ccccc1)c1ccc(Br)o1  12.9 µM
87. CCOC(=O)c1[nH]c(C)c(C(=O)Nc2cc(OC)ccc2OC)c1C  13 µM
88. COc1ccc(CCC(=O)NCCS(=O)(=O)N2CCN(c3ccccc3)CC2)cc1  13.4 µM
89. Cc1cccc(-c2ccc3[nH]c4c(c3c2)CCN2C[C@@H]([C@H](C)O)[C@@H](N(C)C(=O)NC3CCCCC3)C[C@@H]42)c1  13.7 µM
90. Cc1ccccc1-c1ccc2c(c1)O[C@H](CN(C)Cc1ccncc1)[C@@H](C)CN([C@@H](C)CO)S2(=O)=O  14.9 µM
91. CCO[C@H]1OC(C(=O)Nc2ccccc2)=C[C@@H](c2csc3ccccc23)[C@@H]1CCCO  15.7 µM
92. CC(OC(=O)C1CCCC1)C(=O)Nc1ccc(C(N)=O)cc1 (stereo not given)  15.8 µM
93. O=[N+]([O-])c1ccc(N2CCN(CC3CCCCC3)CC2)cc1  16 µM
94. CC(C)NC(=O)N(C)C[C@H]1OCCCC[C@@H](C)Oc2ccc(NC(=O)Cc3ccccc3)cc2C(=O)N([C@@H](C)CO)C[C@H]1C  16.4 µM
95. COc1ccc(NC(=O)C(=O)NCCC2CCCCN2S(=O)(=O)c2cccs2)cc1 (stereo not given)  17.9 µM
96. CCOC(=O)N1CCN(C(=O)C(NS(=O)(=O)c2cccc3nsnc23)c2ccccc2)CC1 (stereo not given)  17.9 µM
97. COc1ccc(S(=O)(=O)N(C)C[C@@H]2Oc3cc(C#CC4CC4)ccc3S(=O)(=O)N([C@H](C)CO)C[C@@H]2C)cc1  18 µM
98. COc1cccc(NC(=O)N(C)C[C@H]2OCc3ccccc3-c3c(n(C)c4ccccc34)C(=O)N([C@@H](C)CO)C[C@@H]2C)c1  18.3 µM
99. COc1ccc2c(c1)CCc1c(C(=O)NCCCn3ccnc3)noc1-2  18.9 µM
100. COc1ccccc1CN1C[C@@H]2N[C@H](C1)C2c1ccc(-c2ccccc2OC)cc1 (stereo not given in full)  20.8 µM
